# Source: PubChem BioAssay (NCI)
# “And” between values parts separate entries of the source, which are not always exact repeats. Equal values may be shown once.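 Cultured in 96-well plates, cells were exposed to test compound for 48 hours across five concentrations. GI50: concentration for 50% inhibition of growth. TGI is the concentration that stops growth completely.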
# How the values were obtained:
# Assay in all cases: growth of human tumour cells (NCI), 48 h
# HL-60(TB) leukemia = tested on: HL-60(TB) leukemia
# SF-295 CNS = tested on: SF-295 CNS
# SF-268 CNS = tested on: SF-268 CNS
# HCC-2998 colon = tested on: HCC-2998 colon
# A498 renal = tested on: A498 renal
# TK-10 renal = tested on: TK-10 renal
# U251 CNS = tested on: U251 CNS
# IGROV1 ovarian = tested on: IGROV1 ovarian
# RPMI-8226 leukemia = tested on: RPMI-8226 leukemia
# HS 578T breast = tested on: HS 578T breast
SMILES,TGI (HL-60(TB) leukemia) [µM],TGI (SF-295 CNS) [µM],TGI (SF-268 CNS) [µM],TGI (HCC-2998 colon) [µM],TGI (A498 renal) [µM],TGI (TK-10 renal) [µM],TGI (U251 CNS) [µM],TGI (IGROV1 ovarian) [µM],TGI (RPMI-8226 leukemia) [µM],GI50 (HL-60(TB) leukemia) [µM],GI50 (SF-295 CNS),GI50 (SF-268 CNS) [µM],GI50 (HCC-2998 colon) [µM],GI50 (TK-10 renal) [µM],GI50 (HS 578T breast) [µM],TGI (HS 578T breast) [µM],GI50 (U251 CNS) [µM],GI50 (IGROV1 ovarian) [µM],GI50 (RPMI-8226 leukemia) [µM],GI50 (A498 renal) [µM]
CN(C)CCC(=O)N1CCc2c([nH]c3ccccc23)C1c1cccnc1 (stereo unspecified),> 100,> 100,> 100,> 100,> 100,> 100,> 100,> 100,> 100,,,,,,,,,,,
COc1cc2oc(-c3cccc(C(=O)Nc4ccc(C)cc4)c3)cc(=O)c2c(OC)c1OC,4.59,3.56,> 100,17.8,,> 100,> 100,> 100,3.54,1.86,1.63 µM,5.61,3.53,6.89,4.61,> 100,3.26,2.99,0.374,
O=C1[C@@H]2C(c3ccncc3)=NO[C@@H]2C(=O)N1c1ccc(Cc2ccc(N3C(=O)[C@H]4C(c5ccncc5)=NO[C@H]4C3=O)cc2)cc1,> 100,> 100,> 100,> 100,> 100,> 100,> 100,> 100,> 100,,,,,,,,,,,
CN(C)CCCN1c2ccc(O)cc2Sc2ccc(Cl)cc21,30.8,29,21,,31.6,24.9,21.6,22,21.9,,,,,,,23.1,,,,
Cc1ccc(S(=O)(=O)N[C@@H](Cc2ccccc2)C(=O)CCl)cc1,,41.7,43.6,21.8,,41.7,24.5,42,,,,,1.03,19.4,21.2,64.1,9.3,8.25,,
COC(=O)[C@@H]1[C@H](O)[C@H](C)[C@H](O)[C@H](C)/C=C\C=C(C)C(=O)Nc2c(C)c(OC(C)=O)c3c(c2O)C(=O)C(C)=C2OCOC(=C23)C(C)=C[C@@](C)(O)[C@H](O)[C@@H](C)[C@H]1OC(C)=O,34,> 100,> 100,,,,> 100,> 100,56.9,,,,,,,> 100,,,,
Cc1cccc2cc3cccc(C(=O)NCCN(C)C)c3nc12,1.15,1.74,3.84,1.48,0.192,7.88,2.15,> 38.8,,,,,,,,,,,,
COc1ccccc1Nc1nc2ccccc2c2occc12,> 50,> 50,> 50,,43.1,> 50,> 50,39.5,> 50,20.5,20.1 µM,12.3,,18.8,22.1,49,14.5,14,20.6,21.2
CCOC(=O)C(O)Cc1cnc2ccccc2n1 (stereo unspecified),,,> 100,> 100,> 100,> 100,> 100,> 100,> 100,,,,,,,> 100,,,,
Cc1nc2ccccc2c(/C=C/c2ccccc2)c1C(=O)/C=C/c1ccc(Cl)cc1,3.12,,> 100,3.35,,,2.88,,3.58,0.871,,3.15,1.81,,,,1.51,,0.784,
COc1ccc(C(=O)C/C(=N/NC(N)=S)C(=O)Nc2ccccc2)cc1,> 100,> 100,> 100,> 100,> 100,> 100,> 100,> 100,> 100,,,,,,,,,,,
Cc1ccc(N(/C=C/C(=O)C(F)(F)F)CC(=O)c2ccc(Cl)c(Cl)c2)cc1,,16.6,25,14.8,20.9,24.5,22.6,18.6,27,,4.24 µM,12.5,1.45,12.1,2.35,17.1,10.7,5.75,10.8,8.05
CCOC(=O)C1=C(c2ccccc2)NC(c2ccccc2)=C(C(=O)OCC)c2c1c(=O)cc[nH]c2=O,> 100,> 100,> 100,> 100,,> 100,> 100,> 100,> 100,,,,,,,,,,,
NC(=NCCO)c1ccc(N2CCCN(c3ccc(C(N)=NCCO)cc3)CC2)cc1,,> 100,,> 100,,> 100,> 100,,,,> 100 µM,,> 100,> 100,,,> 100,,,
CN(C)CCC(/C=C/c1ccccc1)=N\Nc1ccc(Cl)cc1,5.32,13.1,6.56,3.53,21.8,7.85,5.51,7.53,4.69,,,,,,,,,,,
CCOC(=O)C1=C(C)N(NC(=O)OC)C2(N)N(NC(=O)OC)C(C)=C(C(=O)OCC)C12C#N (stereo unspecified),> 100,> 100,> 100,> 100,> 100,,> 100,> 100,> 100,,,,,,,,,,,
Cc1ccc(S(=O)(=O)NNC(C[N+](=O)[O-])c2ccccc2)cc1 (stereo unspecified),21.9,49.2,35.7,,30.8,58.8,60.5,26.7,> 100,,,,,,,> 100,,,,
CNC1=CC(=O)C2=C(C1=O)C1C3=C(C(=O)C(Br)=C(OC)C3=O)C2c2ccccc21 (stereo unspecified),,10,10.3,,,26.2,4.26,3.2,> 50,,2.85 µM,1.87,,7.56,2.72,22.1,1.41,1.35,2.27,
Cc1cc(Cl)ccc1N1C(=O)C(=O)C(c2nc3ccccc3o2)C(=O)C1=O,> 100,> 100,> 100,> 100,> 100,> 100,> 100,> 100,,,,,,,,,,,,
Cc1cccc(Cl)c1NC(=O)c1cccc([N+](=O)[O-])c1O,,> 100,96.5,> 100,> 100,,> 100,> 100,64.6,,,,,,,,,,,

SMILES,TGI (HL-60(TB) leukemia) [µM],TGI (SF-295 CNS) [µM],TGI (SF-268 CNS) [µM],TGI (HCC-2998 colon) [µM],TGI (A498 renal) [µM],TGI (TK-10 renal) [µM],TGI (U251 CNS) [µM],TGI (IGROV1 ovarian) [µM],TGI (RPMI-8226 leukemia) [µM],GI50 (HL-60(TB) leukemia) [µM],GI50 (SF-295 CNS),GI50 (SF-268 CNS) [µM],GI50 (HCC-2998 colon) [µM],GI50 (TK-10 renal) [µM],GI50 (HS 578T breast) [µM],TGI (HS 578T breast) [µM],GI50 (U251 CNS) [µM],GI50 (IGROV1 ovarian) [µM],GI50 (RPMI-8226 leukemia) [µM],GI50 (A498 renal) [µM]
CC(=O)OCC1OC(n2c(=S)n(-c3ccccc3)c(=O)c3cc(Br)ccc32)C(OC(C)=O)C(OC(C)=O)C1OC(C)=O (stereo unspecified),> 100,> 100,> 100,> 100,> 100,,> 100,> 100,> 100,,46.5 µM and > 100 µM,,,,,,,,,
O=[N+]([O-])c1ccc2nc3ccscc-3c2c1,30.4,> 100,> 100,34.1,53.3,> 100,85.3,> 100,44.1,,,,,,,,,,,
C/C=C/C=C/CCCCCCCCCCCCC[C@]1(OC)C=CC(CC(=O)OC)OO1 (stereo partly specified),,34.3,46.4,47.9,,31.7,,20,49.2,,18.5 µM,,24.3,17.6,,,,5.61,,
O=C(O)c1nnsc1-c1csnn1,> 100,> 100,> 100,,> 100,> 100,> 100,> 100,> 100,,,,,,,> 100,,,,
OCC#CCCCCOCC#Cc1ccccc1C#CCOCCCCC#CCO,> 100,56.5,> 100,,34.3,41.6,35.2,> 100,87.8,36.2,19.2 µM,37.4,,11.9,25,65.4,17.2,46.1,29.3,4.35
C=C[Si](C)(C)COC(=O)/C(C#N)=C/C=C/c1ccccc1,> 100,> 100,> 100,> 100,,,> 100,> 100,> 100,,,,,,,,,,,
NC1=NCC(c2ccccn2)C1c1ccc(F)cc1 (stereo unspecified),,> 100,> 100,> 100,> 100,> 100,> 100,> 100,> 100,,,,,,,,,,,
COC(=O)c1ccc(NC(N)=NCC(C)(C)COc2ccc(C(F)(F)F)cc2)nc1,3.56,3.04,,,5.82,3,3.05,,3.64,1.79,1.61 µM,,,1.57,1.97,4.33,1.61,,1.3,1.94
Oc1cc2c(cc1C(c1ccc3c(c1)OCO3)N1CCN(C(c3ccc4c(c3)OCO4)c3cc4c(cc3O)OCO4)CC1)OCO2 (stereo unspecified),> 100,33.2,59.3,,,43.8,28.7,35.7,,,,,,,,30.5,,,,
Cc1ccccc1NC(=O)C(=O)CC(=O)C1CCOC1=O (stereo unspecified),> 100,> 100,> 100,> 100,> 100,> 100,> 100,> 100,> 100,,,,,,,,,,,
CC1(C)Cc2nnsc2C2=C1C(=O)CCS2,> 100,> 100,> 100,> 100,,> 100,> 100,> 100,> 100,,,,,,,,,,,
Cc1cccc(C)c1NC(=O)CCCC(=O)C(C#N)c1ccc(Cl)cc1 (stereo unspecified),> 100,> 100,> 100,> 100,> 100,> 100,> 100,> 100,> 100,,,,,,,,,,,
C=C(CN(C)Cc1ccccc1)c1ccc(C(=O)Nc2ccccc2N)cc1,,16.7,16.8,,,17.8,13.8,9.35,> 50,,5.4 µM,5.98,,7.12,3.66,33.6,3.34,0.606,1.46,
C[CH2][Ge]([CH2]C)([CH2]C)[O]C(=O)C([O][Ge]([CH2]C)([CH2]C)[CH2]C)c1ccccc1 (stereo unspecified),38.9,41,> 100,38.5,67.5,> 100,41.4,> 100,> 100,14.7,14.5 µM,25.8,19.2,47.6,,,17.2,29.1,11.2,19.2
COc1ccc(C2N3CCCCC3[C@@H]3c4[nH]c5ccccc5c4CCN23)c(OC)c1 (stereo partly specified),42,> 100,53,,30.1,69.1,> 100,> 100,45.6,,,,,,,,,,,
O=C1C(CO)=C[C@@H](O)[C@H]2O[C@@H]12,> 100,> 100,> 100,,> 100,,> 100,> 100,> 100,,,,,,,> 100,,,,
Cn1ccc2c3c(=O)cc[nH]c3ccc21,> 100,> 100,> 100,> 100,,> 100,> 100,> 100,> 100,> 100,> 100 µM,> 100,> 100,> 100,20.2,> 100,> 100,> 100,> 100,
CC(C)(C)c1cc(-c2c3nc(c(-c4cc(C(C)(C)C)cc(C(C)(C)C)c4)c4ccc([nH]4)c(-c4cc(C(C)(C)C)cc(C(C)(C)C)c4)c4nc(c(-c5cc(C(C)(C)C)cc(C(C)(C)C)c5)c5ccc2[nH]5)C=C4)C=C3)cc(C(C)(C)C)c1,> 100,> 100,> 100,> 100,> 100,> 100,> 100,> 100,> 100,,,,,,,,,,,
CC1NCCc2c1[nH]c1cc(O)ccc21 (stereo unspecified),> 100,> 100,> 100,> 100,> 100,> 100,,> 100,> 100,,,,,,,,,,,
